This note sets out measurements from patent publication US5922689A, “Cisplatin analogs for cancer treatment” (Unitech Pharmaceuticals, Inc., priority 1997, dated 1999).

The test system of data set [1] is normal human mammary cells. The experiment in a line: Side-by-side growth assay versus cisplatin, normal human mammary cells, Example 6. It is filed as cell-based. The settings on record: for cell count, normal human mammary cells: untreated 1.00 × 10^5; for % inhibition: normal human mammary cells. As for the experimental part: (§1) Growth Assay: plate individual cells (human breast cancer cells MCF-7, and MDA-MB-231) at 10^4 cells/mL, 1-mL/well in MEM-10 (MEM+10% FBS, where FBS is fetal Bovine Serum) with 1/100 Penicillin/Strep. Add 1/100 volume of the above Test Solution (10 μL/mL) to triplicate wells. MCF-7 also requires 10 μg/mL insulin; MDA-MB-231 requires no insulin. Incubate cell cultures at 37° C. for 6 days and count the number of cells.
(§2) side-by-side comparison of cis-[Pt(NH3)2 PtCl(Guanosine)]Cl and cisplatin (performed by Biotherapies Incorporated of Ann Arbor, Mich.)
(§3) Test Solutions: Test solutions were prepared in the same manner as in Example 5, except, additional test solution was prepared employing cisplatin.
(§4) Growth Assay: The same method in Example 5 was used. However, the cells studied were normal human mammary cells and breast cancer cells, MCF-7.

Data set [2] relates to MCF-7 breast cancer cells. The experiment in a line: Side-by-side growth assay versus cisplatin, MCF-7, Example 6. It is filed as cell-based, human. The settings on record: for MCF-7 cell count: untreated 2.96 × 10^6. As for the experimental part: as §1, §2, §3, §4
The test system of data set [3] is human breast cancer cells MCF-7. The experiment in a line: In-vitro growth assay (cell count after 6 days), MCF-7, Example 5. Particulars: 37° C.; for MCF-7 cell count / % inhibition: 6 days; for MCF-7 cell count: untreated 6.70 × 10^5. It is filed as cell-based. As for the experimental part: (§5) In-vitro inhibition of cancer cells by cis-[(NH3)2 PtCl(Guanosine)]Cl (performed by Biotherapies Incorporated, Ann Arbor, Mich.)
as §1

In data set [4] the test system is human breast cancer cells MDA-MB-231. The experiment in a line: In-vitro growth assay (cell count after 6 days), MDA-MB-231, Example 5. It is filed as cell-based. Particulars: 37° C.; for MDA cell count / % inhibition: 6 days; for MDA cell count: untreated 4.00 × 10^5. As to the method: as §5, §1
Where [5] appears, read: 0.012 mg/mL (4.00 × 10^-5 mmole/mL).
The mark [6] stands for this setting: cisplatin 0.025 mg/mL (8.33 × 10^-5 mmole/mL).
The mark [7] stands for this setting: 0.05 mg/mL (8.57 × 10^-5 mmole/mL).
Where [8] appears, read: #95001 0.025 mg/mL (4.29 × 10^-5 mmole/mL).
[9] abbreviates: 0.00025 mg/mL (4.29 × 10^-7 mmole/mL).
The mark [10] stands for this setting: 0.0025 mg/mL (4.29 × 10^-6 mmole/mL).
The mark [11] stands for this setting: 0.025 mg/mL (4.29 × 10^-5 mmole/mL).

As for `N.N.[Cl][Pt][Cl]` [cisplatin, cis-diamminedichloroplatinum], the “cell count, normal human mammary cells” value is recorded as 1.00 × 10^4 in data set [1] (setting [5]) and 3.30 × 10^3 in data set [1] (setting [6]). The “% inhibition” value in data set [1] (setting [5]) is reported as 90.0%; in data set [1] (setting [6]), 99.0%; in data set [2] (MCF-7, 0.012 mg/mL (4.00 × 10^-5 mmole/mL)) it was 99.8%; in data set [2] (MCF-7, cisplatin 0.025 mg/mL (8.33 × 10^-5 mmole/mL)), 99.9%. For the same compound, the MCF-7 cell count in data set [2] (setting [5]) and in data set [2] (setting [6]) was 5.00 × 10^3 in each case.
On to “cis-diamminechloroguanosineplatinum chloride [cis-[Pt(NH3)2 Cl(Guanosine)]Cl]”, for which the “cell count, normal human mammary cells” value in data set [1] (setting [7]) is listed as 4.50 × 10^4; in data set [1] (setting [8]), 9.30 × 10^4. In data set [1] (ca. 8×10-5 mmole/mL), the “toxicity to normal human mammary cells versus cisplatin (in words)” value was “lower than cisplatin”. Further, the “% inhibition” value in data set [1] (setting [7]) turned out to be 55.0%; in data set [1] (setting [8]), 7.0%; in data set [3] (MCF-7, 0.00025 mg/mL (4.29 × 10^-7 mmole/mL)), 9.0%; in data set [3] (MCF-7, 0.0025 mg/mL (4.29 × 10^-6 mmole/mL)) it was 92.5%; in data set [3] (MCF-7, 0.025 mg/mL (4.29 × 10^-5 mmole/mL)) it was 98.5%; in data set [4] (MDA-MB-231, 0.00025 mg/mL (4.29 × 10^-7 mmole/mL)), 11.3%. Further, the “% inhibition” value turned out to be 87.5% in data set [4] (MDA-MB-231, 0.0025 mg/mL (4.29 × 10^-6 mmole/mL)); 97.5% in data set [4] (MDA-MB-231, 0.025 mg/mL (4.29 × 10^-5 mmole/mL)); 99.8% in data set [2] (MCF-7, 0.05 mg/mL (8.57 × 10^-5 mmole/mL)); 97.6% in data set [2] (MCF-7, #95001 0.025 mg/mL (4.29 × 10^-5 mmole/mL)). Besides, the MCF-7 cell count is listed as 6.10 × 10^5 in data set [3] (setting [9]); 5.00 × 10^4 in data set [3] (setting [10]); 1.00 × 10^4 in data set [3] (setting [11]); 6.70 × 10^3 in data set [2] (setting [7]); 3.30 × 10^3 in data set [2] (setting [8]). Besides, the “inhibition of cell growth (in words)” value in data set [3] (MCF-7, 6 days) is “able to inhibit the cell growth”; in data set [4] (MDA-MB-231, 6 days), “able to inhibit the cell growth”. The figures for the MDA cell count in data set [4] (setting [9]), in data set [4] (setting [10]) and in data set [4] (setting [11]) were 3.55 × 10^5, 5.00 × 10^4 and 1.00 × 10^4, respectively. Further, the “effectiveness in killing MCF-7 cells versus cisplatin (in words)” value in data set [2] (ca. 8×10-5 mmole/mL) was “as effective as cisplatin in killing MCF-7 cells”.
